Experimental data taken from patent US10092657B2, “Opsonized β-glucan preparations and methods” (Biothera, Inc., priority 2011, dated 2018).

Experiments:
human neutrophils [1] = experiment: Binding of PGG β-glucan after serum pre-treatment, neutrophils; type: cell-based; conditions: 10 mM EGTA with or without 10 mM MgCl2; vs untreated serum
Method: (§1) PGG β-glucan at concentration 60-80 mg/mL was incubated with human serum at 1:10 volume ratio for 30 minutes in a 37° C. water bath. The serum-pretreated PGG β-glucan was added to neutrophils at 200 μg/mL or to PBMC at 100 μg/mL resuspended in RPM1 containing either 10% regular autologous serum or 10% HI serum at indicated time and temperature of incubation. Binding was then determined as described previously.
(§2) To determine the role of complement proteins in binding, experiments were performed as described above except for using serum containing 10% HI, compstatin-treated or methylamine (MA)-treated, EGTA- or EGTA+MgCl2 (MgEGTA)-treated, or factor D-blocked serum. Heat-inactivated (HI) serum was prepared by incubating serum in a 56° C. water bath for 30 minutes. […] Treatment of serum with methylamine (MA) was done by incubating serum with 0.67% of methylamine for 2.5 hours at 37° C., followed by three washes with DPBS using Amicon centrifugal filter unit with a 3K MW cut-off (Millipore, Billerica, Mass.). DPBS-treated serum was prepared in the same manner and used as control serum for MA-treated serum. For blocking of factor D in the serum, 166-32 at concentration 20 μg/mL was incubated with serum on ice for 30 minutes, and then used for binding studies. […]

human monocytes [2] = experiment: Binding of PGG β-glucan after serum pre-treatment, monocytes; type: cell-based; conditions: 10 mM EGTA with or without 10 mM MgCl2; vs untreated serum
Method: as §1, §2

iC3b [3] = biological target: T1, iC3b (Homo sapiens, UniProt P01024); experiment: ELISA for iC3b deposition on immobilized PGG β-glucan; type: binding; conditions: for Effect of serum treatment on iC3b deposition on immobilized β-glucan: methylamine 0.67%, 10 mM EGTA, 10 mM EGTA+10 mM MgCl2
T1 construct: from tissue
Method: PGG β-glucan or dextran was immobilized on wells of a 96-well polystyrene plate (COSTAR, Coming, Inc., Lowell, Mass.) by drying the glucans at 50° C. followed by UV cross-linking. The glucan-coated plate was first blocked with 1% BSA before incubation with untreated serum or serum undergone various treatments as described in binding studies, diluted 1:2 with wash buffer (PBS/0.05% Tween-20) for 30 minutes at 37° C. After washing the serum from the plate, the bound iC3b was probed using the anti-iC3b monoclonal antibody followed by biotin-labeled goat anti-mouse IgG Ab. The amount of immobilized biotin-labeled antibody was determined using streptavidin peroxidase and TMB substrate solution (KPL, Gaithersburg, Md.). OD450 of each well was measured with the spectrophotometer SpectraMAX 250 (Molecular Devices, Sunnyvale, Calif.). Fold change was calculated as OD450 of wells containing immobilized β-glucan divided by OD450 of wells containing no β-glucan, both incubated in the presence of treated or untreated serum.

sC5b-9 complex = experiment: Measurement of fluid-phase SC5b-9 complex formation in the serum; type: biochemical, human; conditions: serum treated with 10 mM EGTA with or without 10 mM MgCl2
Method: The MicroVue SC5b-9 EIA kit was used to measure activation of the classical and alternative pathways of complement according to the vendor's instruction (Quidel Corp., San Diego, Calif.). Briefly, the serum, untreated or treated was mixed with PBS, Ab-sensitized sheep RBC (SRBC), or 20 units of CVF and added to plate wells pre-coated with anti-sC5b-9 monoclonal antibody. The plate was incubated at 37° C. for 60 minutes, followed by five washes with the provided wash buffer. The plate was then incubated with the provided SC5b-9 Plus Conjugate, which contained horseradish peroxidase-conjugated Ab specific for sC5b-9 at room temperature for 30 minutes. The plate was washed five times, incubated with the substrate for 15 minutes at room temperature to initiate the enzymatic reaction and subsequently quenched with the stop solution. OD450 Was measured using the spectrophotometer SpectraMAX 250. The concentration of fluid phase sC5b-9 present in the samples was determined from the standard curve generated with the provided sC5b-9 standards.

human neutrophils [4] = experiment: Binding studies on the role of complement proteins in serum, neutrophils; type: cell-based; conditions: for Effect of the agent added to serum or media on binding of PGG β-glucan: compstatin/control peptide 20 or 100 μM, methylamine 0.67%, 166-32 20 μg/mL, HSA 10%
Method: (§3) Heat-inactivated (HI) serum was prepared by incubating serum in a 56° C. water bath for 30 minutes. […] Treatment of serum with methylamine (MA) was done by incubating serum with 0.67% of methylamine for 2.5 hours at 37° C., followed by three washes with DPBS using Amicon centrifugal filter unit with a 3K MW cut-off (Millipore, Billerica, Mass.). DPBS-treated serum was prepared in the same manner and used as control serum for MA-treated serum. For blocking of factor D in the serum, 166-32 at concentration 20 μg/mL was incubated with serum on ice for 30 minutes, and then used for binding studies. For binding experiments in the presence of EGTA or MgEGTA, serum was incubated with 10 mM EGTA with or without 10 mM MgCl2 for 10 minutes at room temperature. The untreated and EGTA/MgEGTA-treated serum was then used to pre-treat PGG and perform binding studies as described earlier.

human monocytes [5] = experiment: Binding studies on the role of complement proteins in serum, monocytes; type: cell-based; conditions: for Effect of the agent added to serum or media on binding of PGG β-glucan: compstatin/control peptide 20 or 100 μM, methylamine 0.67%, 166-32 20 μg/mL, HSA 10%
Method: as §3

human neutrophils [6] = experiment: Binding of DTAF-labeled PGG β-glucan to human neutrophils, with excess unlabeled competitor; type: cell-based; conditions: 10 mg/mL unlabeled competitor; 25 μg/mL DTAF-labeled β-glucan
Method: In early optimization experiments, neutrophils, monocytes, and T cells were identified by staining with fluorescently labeled anti-CD 15, anti-CD 14, or anti-CD3 Abs, respectively. Events were collected on a LSRII flow cytometer (BD Biosciences, San Jose, Calif.) and analysis was performed using FLOWJO (Tree Star, Ashland, Oreg.). For assessing binding of DTAF-labeled PGG β-glucan to human neutrophils, 25 βg/mL, 100 μg/mL, or 400 μg/mL of labeled β-glucan was added to neutrophils resuspended in RPMI/10% serum, incubated in a 37° C., 5% CO2 humidified incubator for one hour, washed twice with cold FACS buffer, and fixed with 1% paraformaldehyde. Surface binding of DTAF-conjugated β-glucan was subsequently assessed by flow cytometric analysis.

iC3b [7] = biological target: T1, iC3b; experiment: Immunoprecipitation of PGG β-glucan with BfD IV and detection of pulled-down iC3b; type: binding; conditions: glucan incubated with regular serum
Method: PGG β-glucan or dextran at concentration 60-80 mg/mL was incubated with regular or HI serum at 1:10 volume ratio for 30 minutes in a 37° C. water bath. BfD IV Ab was added to the serum/β-glucan mixture and incubated at room temperature for additional 30 minutes. Magnetic beads conjugated with rat anti-mouse IgM (DYNABEADS, Invitrogen, Camarillo, Calif.) were washed three times with DPBS and incubated with serum-PGG β-glucan-BfD IV mixture for another 30 minutes at room temperature. The beads were separated magnetically and iC3b pulled-down along with immunoprecipitated PGG was probed using FITC-conjugated complement C3 Ab by flow cytometer.

[8] = 100 μM compstatin-treated serum vs control peptide, C3 blocking, three donors

T1 sequence (P01024 749-1303 limits assumed): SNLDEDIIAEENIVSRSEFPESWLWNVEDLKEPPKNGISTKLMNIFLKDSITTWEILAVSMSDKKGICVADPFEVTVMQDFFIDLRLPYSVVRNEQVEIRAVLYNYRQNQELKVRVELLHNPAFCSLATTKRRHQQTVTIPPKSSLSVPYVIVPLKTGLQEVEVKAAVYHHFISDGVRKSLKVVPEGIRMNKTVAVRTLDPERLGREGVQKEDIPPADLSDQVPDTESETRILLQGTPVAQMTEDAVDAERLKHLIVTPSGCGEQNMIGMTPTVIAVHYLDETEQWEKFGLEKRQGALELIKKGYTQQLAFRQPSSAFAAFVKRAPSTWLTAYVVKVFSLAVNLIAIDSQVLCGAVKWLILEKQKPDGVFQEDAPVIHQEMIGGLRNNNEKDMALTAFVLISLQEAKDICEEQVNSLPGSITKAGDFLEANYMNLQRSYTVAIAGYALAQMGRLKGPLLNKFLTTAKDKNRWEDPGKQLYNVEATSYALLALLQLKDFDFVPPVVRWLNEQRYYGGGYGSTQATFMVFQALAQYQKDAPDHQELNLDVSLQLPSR
T1 sequence (P01024 23-667 partner limits assumed): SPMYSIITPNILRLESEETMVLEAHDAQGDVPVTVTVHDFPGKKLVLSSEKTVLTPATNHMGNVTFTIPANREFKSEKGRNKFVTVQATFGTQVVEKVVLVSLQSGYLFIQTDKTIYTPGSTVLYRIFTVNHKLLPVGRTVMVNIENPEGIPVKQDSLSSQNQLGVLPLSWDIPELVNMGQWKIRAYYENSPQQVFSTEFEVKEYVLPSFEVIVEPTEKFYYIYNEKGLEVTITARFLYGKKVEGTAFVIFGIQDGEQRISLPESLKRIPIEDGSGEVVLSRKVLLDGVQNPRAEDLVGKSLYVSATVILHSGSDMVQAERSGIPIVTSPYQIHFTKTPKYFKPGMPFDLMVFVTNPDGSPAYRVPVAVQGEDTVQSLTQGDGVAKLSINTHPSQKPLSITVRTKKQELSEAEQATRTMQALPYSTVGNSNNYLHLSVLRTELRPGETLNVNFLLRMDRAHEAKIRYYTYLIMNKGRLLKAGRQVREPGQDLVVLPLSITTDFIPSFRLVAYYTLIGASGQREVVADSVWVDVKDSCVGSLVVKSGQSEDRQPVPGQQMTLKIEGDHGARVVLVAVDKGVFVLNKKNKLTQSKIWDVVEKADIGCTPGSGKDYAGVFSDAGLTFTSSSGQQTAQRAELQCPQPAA
T1 sequence (P01024 1321-1663 partner limits assumed): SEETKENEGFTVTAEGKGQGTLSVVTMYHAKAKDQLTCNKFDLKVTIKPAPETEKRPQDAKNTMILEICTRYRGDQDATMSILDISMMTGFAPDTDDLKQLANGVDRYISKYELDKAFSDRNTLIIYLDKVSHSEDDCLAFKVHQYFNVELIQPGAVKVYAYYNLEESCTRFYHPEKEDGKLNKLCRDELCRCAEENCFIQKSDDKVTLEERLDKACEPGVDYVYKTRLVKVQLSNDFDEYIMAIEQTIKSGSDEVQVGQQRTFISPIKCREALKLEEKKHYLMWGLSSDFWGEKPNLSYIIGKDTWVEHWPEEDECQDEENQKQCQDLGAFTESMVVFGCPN

O=C(O)CN(CCOCCOCCN(CC(=O)O)CC(=O)O)CC(=O)O [EGTA]
Rescue of binding to cells in HI serum by PGG β-glucan pre-opsonized in treated serum (human neutrophils [1]): rescue of binding was diminished
Rescue of binding to cells in HI serum by PGG β-glucan pre-opsonized in treated serum (human monocytes [2]): rescue of binding was diminished
Effect of serum treatment on iC3b deposition on immobilized β-glucan (iC3b [3]): completely inhibited
Effect on CVF-activated alternative pathway (sC5b-9 formation) (sC5b-9 complex): completely blocked both the classical and alternative pathways to background levels
Effect on SRBC-activated classical pathway (sC5b-9 formation) (sC5b-9 complex): completely blocked both the classical and alternative pathways to background levels

CC[C@H](C)[C@H](N)C(=O)N[C@H]1CSSC[C@@H](C(=O)N[C@H](C(N)=O)[C@@H](C)O)NC(=O)[C@H](CCCN=C(N)N)NC(=O)[C@H](Cc2cnc[nH]2)NC(=O)[C@H](Cc2cnc[nH]2)NC(=O)CNC(=O)[C@H](Cc2c[nH]c3ccccc23)NC(=O)[C@H](CC(=O)O)NC(=O)[C@H](CCC(N)=O)NC(=O)[C@H](C(C)C)NC(=O)[C@H](C(C)C)NC1=O [compstatin]
Average percentage of inhibition of β-glucan binding (human neutrophils [4]; [8]): 95%
Range of percentage of inhibition of β-glucan binding (human neutrophils [4]; [8]): 90-98%
Effect of the agent added to serum or media on binding of PGG β-glucan (human neutrophils [4]): inhibited binding of β-glucan in a concentration-dependent manner
Average percentage of inhibition of β-glucan binding (human monocytes [5]; [8]): 80%
Range of percentage of inhibition of β-glucan binding (human monocytes [5]; [8]): 62-92%
Effect of the agent added to serum or media on binding of PGG β-glucan (human monocytes [5]): inhibited binding of β-glucan in a concentration-dependent manner

CN [methylamine]
Effect of the agent added to serum or media on binding of PGG β-glucan (human neutrophils [4]): abrogated the ability of PGG β-glucan to bind to cells
Effect of the agent added to serum or media on binding of PGG β-glucan (human monocytes [5]): abrogated the ability of PGG β-glucan to bind to cells
Effect of serum treatment on iC3b deposition on immobilized β-glucan (iC3b [3]): complete inhibition of iC3b deposition

control peptide: control peptide IAVVQDWGHHRAT (SEQ ID NO:2) (control polypeptide)
Effect of the agent added to serum or media on binding of PGG β-glucan (human neutrophils [4]): no effect on binding
Effect of the agent added to serum or media on binding of PGG β-glucan (human monocytes [5]): no effect on binding

dextran [reference compound]
Blocking of DTAF-labeled β-glucan staining by excess unlabeled glucan (human neutrophils [6]): did not block binding
Fold increase of iC3b detected on immobilized glucan compared to background (iC3b [3]; 300 μg/mL immobilized, regular serum 30 minutes at 37° C.): significantly less iC3b detected
iC3b pulled down with BfD IV immunoprecipitate (iC3b [7]): absence of iC3b
